A short description of the first data set: solvent given as SMILES. The settings on record: in C1CCCCC1.
`CC(C)(C)c1ccc(-c2cc3c(-c4ccc(C(C)(C)C)cc4)c4cccc5c(-c6ccc(C(C)(C)C)cc6)cc6c(-c7ccc(C(C)(C)C)cc7)c7cccc2c7c3c6c54)cc1` came in with an emission maximum of 463 nm.
On the same count and under the same terms, the value for `COc1ccc2c3c(c4ccc(OC)cc4c2c1)C(C)(C)c1ccc2ccccc2c1-3` was 396 nm; that for `COc1cc(OC)c2c(c1)C(=O)c1ccc(OC)cc1-2` was 537 nm; that for `CC1=[N+]2C(=C(c3ccc(C=O)cc3)c3ccc(C)n3[B-]2(F)F)C=C1c1cc2n(c1)[B-](F)(F)[N+]1=CC=CC1=C2c1c(C)cc(C)cc1C` was 657 nm.
Still for that read-out and setting: the value for `CCCCCCCCCCCCC(CCCCCCCCCC)Cn1c2cc(C=C(C#N)C#N)c3cccc4c5cccc6c(C=C(C#N)C#N)cc1c(c65)c2c34` (centres undefined) was 603 nm; that for `COc1ccc(C2=C3C(C)=CC(C)=[N+]3[B-](F)(F)n3c(/C=C/c4ccc(N(C)C)cc4)cc(C)c32)cc1` was 612 nm; that for `CCCN1C(=O)c2c3c(c4c(c2C1=O)CCc1cc(-c2ccc(N(C)C)cc2)c(OC)cc1-4)-c1cc(OC)c(-c2ccc(N(C)C)cc2)cc1CC3` was 511 nm.

The same data set, now with this note: in C1CCOC1.
Compound `CC(C)(C)c1ccc(-c2nc3c4ccc(-c5cccc6ccccc56)cc4c4cc(-c5cccc6ccccc56)ccc4c3n2-c2ccc(C(C)(C)C)cc2)cc1` registered an emission maximum of 386 nm.
The same measure, in the same setting: with `CCC1(CC)c2cc(/C=C/c3cc(C#N)c(/C=C/c4ccc5c(c4)C(CC)(CC)c4cc(N6c7ccccc7Sc7ccccc76)ccc4-5)cc3C#N)ccc2-c2ccc(N3c4ccccc4Sc4ccccc43)cc21` the figure was 514 nm; with `C=CC1CN2CCC1CC2[C@@H](OCc1ccccc1)c1ccnc2ccc(O)cc12` (some centres undefined), 358 nm; with `COc1ccc(C2=C3C(C)=CC(C)=[N+]3[B-](F)(F)n3c(/C=C/c4ccc(N(C)C)cc4)cc(C)c32)cc1`, 664 nm.
The same measure, in the same setting: with `CC(C)(C)c1ccc2c(c1)c1cc(C(C)(C)C)ccc1n2-c1ccc(-c2nc(-c3ccccc3)nc(-c3ccccc3)n2)c2c1c1ccccc1n2-c1ccccc1` the figure was 450 nm.
On to `CCCN1C(=O)c2c3c(c4c(c2C1=O)CCc1cc(-c2ccc(N(C)C)cc2)c(OC)cc1-4)-c1cc(OC)c(-c2ccc(N(C)C)cc2)cc1CC3`, for which the emission maximum was found to be 602 nm.
On the same count and under the same terms, the value for `CC(C)(C)c1ccc(-c2nc3c4ccc(-c5cc6ccccc6c6ccccc56)cc4c4cc(-c5cc6ccccc6c6ccccc56)ccc4c3n2-c2ccc(C(C)(C)C)cc2)cc1` was 388 nm; that for `c1ccc(-c2cc(-c3ccc4ccc5cccc6ccc3c4c56)ccn2)nc1` was 394 nm.
Take `c1ccc(-p2c(-c3cccs3)cc3ccccc32)cc1` (centres undefined): the emission maximum was 417 nm.

Staying with this data set, now noted: in C1COCCO1.
As for `CC(C)(C)c1ccc(-c2nc3c4ccc(-c5cccc6ccccc56)cc4c4cc(-c5cccc6ccccc56)ccc4c3n2-c2ccc(C(C)(C)C)cc2)cc1`, the emission maximum is given as 385 nm.
`COc1ccc(C2=C3C(C)=CC(C)=[N+]3[B-](F)(F)n3c(/C=C/c4ccc(N(C)C)cc4)cc(C)c32)cc1` returned an emission maximum of 648 nm.
On the same count and under the same terms, the value for `CC(C)(C)c1ccc(-c2nc3c4ccc(-c5cc6ccccc6c6ccccc56)cc4c4cc(-c5cc6ccccc6c6ccccc56)ccc4c3n2-c2ccc(C(C)(C)C)cc2)cc1` was 386 nm.

The data set is the same for the next values; noted with them: in CC1CCCCC1.
As to `COc1ccc(C2=C3C(C)=CC(C)=[N+]3[B-](F)(F)n3c(/C=C/c4ccc(N(C)C)cc4)cc(C)c32)cc1`, the emission maximum was 612 nm.

The same data set, now with this note: in CC#N.
`CC(C)(C)c1ccc(-c2cc3c(-c4ccc(C(C)(C)C)cc4)c4cccc5c(-c6ccc(C(C)(C)C)cc6)cc6c(-c7ccc(C(C)(C)C)cc7)c7cccc2c7c3c6c54)cc1` had an emission maximum of 464 nm.
On the same count and under the same terms, the value for `CC(C)(C)c1ccc(-c2nc3c4ccc(-c5cccc6ccccc56)cc4c4cc(-c5cccc6ccccc56)ccc4c3n2-c2ccc(C(C)(C)C)cc2)cc1` was 391 nm; that for `COc1cccc(-c2c3ccccc3c3n2[B-](F)(F)[N+]2=Cc4c5ccccc5c(-c5cccc(OC)c5)n4[B-](F)(F)[N+]2=C3)c1` was 596 nm; that for `COc1cc(OC)c2c(c1)C(=O)c1ccc(OC)cc1-2` was 578 nm.
Still for that read-out and setting: with `Nc1ccc2ccc3cccc4ccc1c2c34` the figure was 425 nm; with `C/C(=N\Nc1ccc(C#N)cc1)c1cccc(/C(C)=N/Nc2ccc(C#N)cc2)c1`, 492 nm; with `O=c1[nH]cc(F)c(=O)[nH]1`, 322 nm.
Same read-out and setting: the value for `CCC1(CC)c2cc(/C=C/c3cc(C#N)c(/C=C/c4ccc5c(c4)C(CC)(CC)c4cc(N6c7ccccc7Sc7ccccc76)ccc4-5)cc3C#N)ccc2-c2ccc(N3c4ccccc4Sc4ccccc43)cc21` was 610 nm.
For the compound `CCCCCCCCCCCCC(CCCCCCCCCC)Cn1c2cc(C=C(C#N)C#N)c3cccc4c5cccc6c(C=C(C#N)C#N)cc1c(c65)c2c34` (centres undefined), the emission maximum turned out to be 641 nm.
Consider `C=CC1CN2CCC1CC2[C@@H](OCc1ccccc1)c1ccnc2ccc(O)cc12` (some centres undefined), for which the emission maximum was 362 nm.
Still for that read-out and setting: the value for `COc1ccc(C2=C3C(C)=CC(C)=[N+]3[B-](F)(F)n3c(/C=C/c4ccc(N(C)C)cc4)cc(C)c32)cc1` was 717 nm; that for `F[B-]1(F)n2c(c(Sc3ccccc3)c3c2-c2ccccc2CC3)C=C2C(Sc3ccccc3)=C3CCc4ccccc4C3=[N+]21` was 661 nm; that for `CC(C)(C)c1ccc(-c2nc3c4ccc(-c5cc6ccccc6c6ccccc56)cc4c4cc(-c5cc6ccccc6c6ccccc56)ccc4c3n2-c2ccc(C(C)(C)C)cc2)cc1` was 405 nm.
`c1ccc(-c2cc(-c3ccc4ccc5cccc6ccc3c4c56)ccn2)nc1` had an emission maximum of 410 nm.
`CC(=O)c1c2c(c(C(C)=O)c3c1OC(CC(=O)O)O3)OCO2` showed an emission maximum of 553 nm.

Still in this data set, the particulars now being: in CC(C)=O.
In turn, `COc1ccc(C2=C3C(C)=CC(C)=[N+]3[B-](F)(F)n3c(/C=C/c4ccc(N(C)C)cc4)cc(C)c32)cc1` yielded an emission maximum of 695 nm.

Still in this data set, the particulars now being: in CC(C)OC(C)C.
Compound `COc1ccc(C2=C3C(C)=CC(C)=[N+]3[B-](F)(F)n3c(/C=C/c4ccc(N(C)C)cc4)cc(C)c32)cc1` yielded an emission maximum of 629 nm.

The same data set, now with this note: in CCC#N.
Turning to `COc1ccc(C2=C3C(C)=CC(C)=[N+]3[B-](F)(F)n3c(/C=C/c4ccc(N(C)C)cc4)cc(C)c32)cc1`, the emission maximum is given as 710 nm.
The same measure, in the same setting: the value for `c1ccc(-c2cc(-c3ccc4ccc5cccc6ccc3c4c56)ccn2)nc1` was 408 nm.

The data set is the same for the next values; noted with them: in CCCC#N.
Regarding `C=CC1CN2CCC1CC2[C@@H](OCc1ccccc1)c1ccnc2ccc(O)cc12` (some centres undefined), the emission maximum amounted to 361 nm.
Same read-out and setting: with `COc1ccc(C2=C3C(C)=CC(C)=[N+]3[B-](F)(F)n3c(/C=C/c4ccc(N(C)C)cc4)cc(C)c32)cc1` the figure was 695 nm; with `c1ccc(-c2cc(-c3ccc4ccc5cccc6ccc3c4c56)ccn2)nc1`, 408 nm.

The data set is the same for the next values; noted with them: in CCCCCC.
Compound `CC(C)(C)c1ccc(-c2nc3c4ccc(-c5cccc6ccccc56)cc4c4cc(-c5cccc6ccccc56)ccc4c3n2-c2ccc(C(C)(C)C)cc2)cc1` had an emission maximum of 381 nm.
On the same count and under the same terms, the value for `COc1cccc(-c2c3ccccc3c3n2[B-](F)(F)[N+]2=Cc4c5ccccc5c(-c5cccc(OC)c5)n4[B-](F)(F)[N+]2=C3)c1` was 598 nm.
Same read-out and setting: the value for `C/C(=N\Nc1ccc(C#N)cc1)c1cccc(/C(C)=N/Nc2ccc(C#N)cc2)c1` was 467 nm; that for `CCC1(CC)c2cc(/C=C/c3cc(C#N)c(/C=C/c4ccc5c(c4)C(CC)(CC)c4cc(N6c7ccccc7Sc7ccccc76)ccc4-5)cc3C#N)ccc2-c2ccc(N3c4ccccc4Sc4ccccc43)cc21` was 518 nm; that for `CC(C)(C)c1ccc(-c2nc3c4ccc(-c5cc6ccccc6c6ccccc56)cc4c4cc(-c5cc6ccccc6c6ccccc56)ccc4c3n2-c2ccc(C(C)(C)C)cc2)cc1` was 382 nm.
On the same count and under the same terms, the value for `c1ccc(-c2cc(-c3ccc4ccc5cccc6ccc3c4c56)ccn2)nc1` was 385 nm.

Staying with this data set, now noted: in CCCCO.
On to `COc1ccc(C2=C3C(C)=CC(C)=[N+]3[B-](F)(F)n3c(/C=C/c4ccc(N(C)C)cc4)cc(C)c32)cc1`, for which the emission maximum came to 678 nm.

The same data set, now with this note: in CCCCOCCCC
Turning to `CC(C)(C)c1ccc(-c2nc3c4ccc(-c5cccc6ccccc56)cc4c4cc(-c5cccc6ccccc56)ccc4c3n2-c2ccc(C(C)(C)C)cc2)cc1`, the emission maximum was determined as 383 nm.
Same read-out and setting: with `Nc1ccc2ccc3cccc4ccc1c2c34` the figure was 417 nm.
Still for that read-out and setting: the value for `COc1ccc(C2=C3C(C)=CC(C)=[N+]3[B-](F)(F)n3c(/C=C/c4ccc(N(C)C)cc4)cc(C)c32)cc1` was 627 nm; that for `CC(C)(C)c1ccc(-c2nc3c4ccc(-c5cc6ccccc6c6ccccc56)cc4c4cc(-c5cc6ccccc6c6ccccc56)ccc4c3n2-c2ccc(C(C)(C)C)cc2)cc1` was 384 nm.

Staying with this data set, now noted: in CCCO.
Compound `c1ccc(-c2cc(-c3ccc4ccc5cccc6ccc3c4c56)ccn2)nc1` registered an emission maximum of 429 nm.

The data set is the same for the next values; noted with them: in CCN(CC)CC.
With `CC(C)(C)c1ccc(-c2nc3c4ccc(-c5cccc6ccccc56)cc4c4cc(-c5cccc6ccccc56)ccc4c3n2-c2ccc(C(C)(C)C)cc2)cc1`, the emission maximum was determined as 382 nm.
Same read-out and setting: with `CC(C)(C)c1ccc(-c2nc3c4ccc(-c5cc6ccccc6c6ccccc56)cc4c4cc(-c5cc6ccccc6c6ccccc56)ccc4c3n2-c2ccc(C(C)(C)C)cc2)cc1` the figure was 384 nm.

The data set is the same for the next values; noted with them: in CCO.
With `Cc1cc2cc3ccccc3cc2cn1`, the emission maximum is recorded as 437.06 nm.
Same read-out and setting: with `c1ccc(-c2cc(-c3ccc4ccc5cccc6ccc3c4c56)ccn2)nc1` the figure was 431 nm.

Still in this data set, the particulars now being: in CCOC(C)=O.
Regarding `CC(C)(C)c1ccc(-c2nc3c4ccc(-c5cccc6ccccc56)cc4c4cc(-c5cccc6ccccc56)ccc4c3n2-c2ccc(C(C)(C)C)cc2)cc1`, the emission maximum is listed as 385 nm.
